For this assay, the target named is T1, CCR6 (Homo sapiens, UniProt P51684).
T1 sequence (P51684 1-374): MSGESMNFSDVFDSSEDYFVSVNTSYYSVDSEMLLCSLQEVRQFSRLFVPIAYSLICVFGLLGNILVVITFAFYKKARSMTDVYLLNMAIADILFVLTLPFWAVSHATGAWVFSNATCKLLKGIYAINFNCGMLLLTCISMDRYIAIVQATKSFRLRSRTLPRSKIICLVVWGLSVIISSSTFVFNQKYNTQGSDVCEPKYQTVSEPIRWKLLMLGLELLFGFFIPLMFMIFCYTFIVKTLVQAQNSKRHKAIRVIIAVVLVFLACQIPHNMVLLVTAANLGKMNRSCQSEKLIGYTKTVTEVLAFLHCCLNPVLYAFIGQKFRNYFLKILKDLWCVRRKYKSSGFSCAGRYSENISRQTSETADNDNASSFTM
Kind of assay: CCL20-mediated CCR6+ human T cell chemotaxis assay. It counts as cell-based.

For the compound `CC(C)(C(=O)NCC1CN(C2Cc3ccccc3C2)C(=O)CO1)c1ccc(Cl)cc1` (stereo not shown) [OXM3], the “activity on CCR6” value is given as “neither OXM3 nor OXM4 are active”. Turning to `O=C1COC(CNC(=O)C2(c3ccccc3)CC2)CN1C1Cc2ccccc2C1` (stereo not shown) [OXM4], the “activity on CCR6” value is reported as “neither OXM3 nor OXM4 are active”.

By EC50 is commonly meant the concentration that produces a half-maximal response. Turning to “CCL20: cognate chemokine ligand (agonist) of CCR6 (Peprotech)”, the “pEC50, CCL20-induced CCR6+ human T cell chemotaxis” value (mean ± s.d., n = 5) was 9.7 ± 0.9. Further, for the setting “read-out: EC50, CCL20-induced CCR6+ human T cell chemotaxis, n = 5”, the EC50 came to 0.19 nM.

The values above are taken from PMC11365967 (Nature Communications, 2024).
